Experimental data reported in article PMC9228270, “Design, Synthesis, In Silico Studies and Inhibitory Activity towards Bcr-Abl, BTK and FLT3-ITD of New 2,6,9-Trisubstituted Purine Derivatives as Potential Agents for the Treatment of Leukaemia” (Pharmaceutics, 2022).
Where “and” joins values, the source holds several entries; their conditions need not be identical. Equal values may be shown once. Read-outs that look alike come from different tables or passages of the source.

Tests used:
BTK = target: T1, BTK (Homo sapiens, UniProt Q06187); assay: Recombinant kinase radioassay, BTK; type: biochemical
T1 construct: purchased ProQinase
Protocol: (§1) Recombinant kinase inhibition was measured using standard radioassay. Bcr-Abl1 and Cdk-2/cyclin E kinases were produced in-house, FLT3-ITD and BTK were purchased from ProQinase. The kinases were assayed with suitable substrates (500 µM peptide […] for Abl, 1 mg/mL histone H1 for Cdk-2, 100 µM poly (Glu:Tyr; 4:1)) in the presence of ATP (1 µM for Bcr-Abl, 15 µM for Cdk-2 and BTK), 0.05 µCi [γ-^33P]ATP and the test compound in reaction buffer (60 mM HEPES-NaOH, pH 7.5, 3 mM MgCl2, 3 mM MnCl2, 3 µM Na orthovanadate, 1.2 mM DTT, 2.5 µg/50 µL PEG20.000). The reactions were stopped by adding 3% aq. H3PO4. P-81 phosphocellulose (Whatman) was used to separate phosphorylated substrates. Kinase activity was quantified using a FLA-7000 digital image analyser.

MV4-11 = assay: Cytotoxicity assay (resazurin), MV4-11; type: cell-based; settings: Homo sapiens, 72 h, three independent experiments, range 0.1 to 25 µM
Protocol: (§2) Cytotoxicity assays for the purines were quantified using the resazurin method, a dye to measure redox reactions occurring in the mitochondria of live cells. The cells were treated by tested compounds (in triplicate, six different doses) for 72 h.

FLT3-ITD = target: T2, FLT3-ITD (Homo sapiens, UniProt P36888, ITD); assay: Recombinant kinase radioassay, FLT3-ITD; type: biochemical
T2 sequence (P36888 27-993): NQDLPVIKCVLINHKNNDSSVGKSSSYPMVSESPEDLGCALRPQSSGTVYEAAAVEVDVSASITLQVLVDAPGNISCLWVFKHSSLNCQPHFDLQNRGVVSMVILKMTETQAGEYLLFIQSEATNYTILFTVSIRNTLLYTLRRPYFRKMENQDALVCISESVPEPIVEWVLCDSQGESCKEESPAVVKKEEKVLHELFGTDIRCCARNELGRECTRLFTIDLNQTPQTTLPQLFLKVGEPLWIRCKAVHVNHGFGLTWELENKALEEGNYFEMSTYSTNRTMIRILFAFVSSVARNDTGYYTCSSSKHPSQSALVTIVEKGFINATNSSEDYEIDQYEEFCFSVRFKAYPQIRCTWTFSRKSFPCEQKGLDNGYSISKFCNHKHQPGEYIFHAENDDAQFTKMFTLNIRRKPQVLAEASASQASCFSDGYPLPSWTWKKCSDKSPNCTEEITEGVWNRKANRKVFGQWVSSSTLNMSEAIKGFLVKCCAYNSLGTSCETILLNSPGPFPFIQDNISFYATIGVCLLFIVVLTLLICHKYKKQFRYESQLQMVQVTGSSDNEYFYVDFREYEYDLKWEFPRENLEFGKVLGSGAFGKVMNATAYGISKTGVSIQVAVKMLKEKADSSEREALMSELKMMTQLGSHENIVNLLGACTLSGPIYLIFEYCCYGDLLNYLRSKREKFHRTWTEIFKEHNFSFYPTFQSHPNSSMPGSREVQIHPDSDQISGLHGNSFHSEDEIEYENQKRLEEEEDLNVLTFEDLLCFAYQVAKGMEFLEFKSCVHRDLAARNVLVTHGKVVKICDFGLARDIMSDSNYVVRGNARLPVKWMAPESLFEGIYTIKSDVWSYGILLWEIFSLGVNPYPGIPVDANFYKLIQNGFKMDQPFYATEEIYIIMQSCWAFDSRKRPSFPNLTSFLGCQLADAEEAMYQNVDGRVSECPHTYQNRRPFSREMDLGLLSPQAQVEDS
Protocol: as §1

CEM = assay: Cytotoxicity assay (resazurin), CEM; type: cell-based; settings: Homo sapiens, CCRF-CEM, 72 h, three independent experiments, range 0.1 to 25 µM
Protocol: as §2

Ramos = assay: Cytotoxicity assay (resazurin), Ramos; type: cell-based; settings: Homo sapiens, 72 h, three independent experiments, range 0.1 to 25 µM
Protocol: as §2

HL-60 = assay: Cytotoxicity assay (resazurin), HL-60; type: cell-based; settings: Homo sapiens, 72 h, three independent experiments, range 0.1 to 25 µM
Protocol: as §2

K562 = assay: Cytotoxicity assay (resazurin), K562; type: cell-based; settings: Homo sapiens, 72 h, three independent experiments, range 0.1 to 25 µM
Protocol: as §2

Bcr-Abl1 = Bcr-Abl1 (Homo sapiens, UniProt P00519); assay: Recombinant kinase radioassay, Abl; type: biochemical; settings: ATP 1 µM, at least three independent experiments, range 0.01–100 µM
Protocol: as §1

Cdk-2/cyclin E = target: T3, Cdk-2/cyclin E (Homo sapiens, UniProt P24941); assay: Recombinant kinase radioassay, Cdk-2/cyclin E; type: biochemical; settings: ATP 15 µM, at least three independent experiments, range 0.01–100 µM
T3 construct: made in house
Protocol: as §1

[1] = recombinant kinase, radioassay, ATP 15 µM, at least three independent experiments, range 0.01–100 µM, read-out: IC50 BTK
[2] = recombinant kinase, radioassay, at least three independent experiments, range 0.01–100 µM, read-out: IC50 FLT3-ITD
[3] = -log IC50 in molar concentration, Table S3, read-out: Experimental pIC50, CoMFA BTK (converted)
[4] = -log IC50 in molar concentration, Table S3, read-out: Experimental pIC50, CoMFA FLT3 (converted)

T1 sequence (Q06187 whole entry): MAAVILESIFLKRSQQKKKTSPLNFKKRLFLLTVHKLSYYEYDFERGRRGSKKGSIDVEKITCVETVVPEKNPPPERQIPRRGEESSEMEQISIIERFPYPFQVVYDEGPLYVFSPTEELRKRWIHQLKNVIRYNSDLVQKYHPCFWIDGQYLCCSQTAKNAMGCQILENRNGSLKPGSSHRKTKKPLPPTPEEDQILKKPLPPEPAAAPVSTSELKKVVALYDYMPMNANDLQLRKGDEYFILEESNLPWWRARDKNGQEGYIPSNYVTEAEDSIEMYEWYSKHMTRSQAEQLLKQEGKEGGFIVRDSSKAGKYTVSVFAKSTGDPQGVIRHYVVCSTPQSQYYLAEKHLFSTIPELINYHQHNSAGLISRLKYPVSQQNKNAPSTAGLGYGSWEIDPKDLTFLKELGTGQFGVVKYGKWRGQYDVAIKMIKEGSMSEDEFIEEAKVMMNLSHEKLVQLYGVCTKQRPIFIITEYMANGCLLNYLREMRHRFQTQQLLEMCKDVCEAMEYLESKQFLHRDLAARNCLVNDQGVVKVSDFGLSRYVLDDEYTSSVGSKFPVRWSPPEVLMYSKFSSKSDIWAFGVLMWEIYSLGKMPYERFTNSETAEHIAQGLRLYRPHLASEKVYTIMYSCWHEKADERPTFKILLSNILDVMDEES
Sequence of Bcr-Abl1 (P00519 27-1130): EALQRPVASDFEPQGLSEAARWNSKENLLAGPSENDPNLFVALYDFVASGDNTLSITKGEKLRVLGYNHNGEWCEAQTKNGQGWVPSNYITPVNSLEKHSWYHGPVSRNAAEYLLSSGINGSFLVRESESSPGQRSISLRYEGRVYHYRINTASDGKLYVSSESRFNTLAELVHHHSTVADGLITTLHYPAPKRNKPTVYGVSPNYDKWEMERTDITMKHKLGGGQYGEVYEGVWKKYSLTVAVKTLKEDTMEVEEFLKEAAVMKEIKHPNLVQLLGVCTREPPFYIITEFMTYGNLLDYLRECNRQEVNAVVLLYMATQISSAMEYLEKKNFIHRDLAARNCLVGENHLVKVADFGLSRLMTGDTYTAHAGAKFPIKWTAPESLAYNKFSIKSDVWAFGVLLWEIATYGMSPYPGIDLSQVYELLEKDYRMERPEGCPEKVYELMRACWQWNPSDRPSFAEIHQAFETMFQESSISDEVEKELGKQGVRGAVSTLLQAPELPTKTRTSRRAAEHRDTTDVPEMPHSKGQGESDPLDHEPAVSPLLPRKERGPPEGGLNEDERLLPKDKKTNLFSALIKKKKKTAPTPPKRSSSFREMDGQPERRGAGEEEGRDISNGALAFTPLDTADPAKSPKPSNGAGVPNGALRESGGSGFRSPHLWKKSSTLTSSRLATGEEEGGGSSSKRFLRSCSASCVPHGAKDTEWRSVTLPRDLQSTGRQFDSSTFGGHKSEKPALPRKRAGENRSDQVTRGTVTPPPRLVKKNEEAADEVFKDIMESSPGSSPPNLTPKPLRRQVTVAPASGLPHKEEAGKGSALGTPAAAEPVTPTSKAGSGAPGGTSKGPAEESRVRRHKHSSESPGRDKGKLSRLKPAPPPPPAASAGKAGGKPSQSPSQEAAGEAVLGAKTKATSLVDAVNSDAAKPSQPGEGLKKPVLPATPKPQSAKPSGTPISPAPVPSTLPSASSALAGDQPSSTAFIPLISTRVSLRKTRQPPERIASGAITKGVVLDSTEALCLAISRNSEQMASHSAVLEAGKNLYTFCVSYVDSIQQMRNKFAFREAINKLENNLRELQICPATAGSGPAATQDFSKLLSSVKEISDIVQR

Structure (SMILES) | IC50 (BTK; [1]) | melting point | GI50 (MV4-11) | IC50 (FLT3-ITD; [2]) | GI50 (CEM) | GI50 (Ramos) | GI50 (HL-60) | GI50 (K562) | IC50 (Bcr-Abl1) | IC50 (Cdk-2/cyclin E) | IC50 (BTK; [3]) | IC50 (FLT3-ITD; [4])
CN1CCN(C(=O)c2ccc(Nc3nc(Nc4cccc(F)c4)c4ncn(CC5CC5)c4n3)cc2)CC1 [Compound 8b, (4-((9-(Cyclopropylmethyl)-6-((3-fluorophenyl)amino)-9H-purin-2-yl)amino)phenyl)(4-methylpiperazin-1-yl)methanone] | 1.72 ± 0.19 µM | 150 to 151 °C | 1.48 ± 0.54 µM | 1.6 µM | 20.2 ± 3.73 µM | 7.07 ± 0.32 µM | 1.08 ± 0.1 µM | 4.91 ± 0.01 µM |  |  |  | 
CN1CCN(c2ccc(Nc3nc(Nc4cccc(C(F)(F)F)c4)c4ncn(CC5CC5)c4n3)cc2)CC1 [Compound 4d, 9-(Cyclopropylmethyl)-N^2-(4-(4-methylpiperazin-1-yl)phenyl)-N^6-(3-(trifluoromethyl)phenyl)-9H-purine-2,6-diamine] | 22.7 ± 2.88 µM | 134 to 135 °C | 2.84 ± 0.29 µM | 1.8 µM | 23.78 ± 0.08 µM | 3.83 ± 0.1 µM | 0.72 ± 0.16 µM | 4.51 ± 0.36 µM | 1.78 ± 0.07 µM | 15.5 ± 1.7 µM |  | 
Clc1nc(Nc2ccccc2)c2ccn(CC3CC3)c2n1 [Compound 11] |  |  |  |  |  |  |  |  |  |  | 1.16 µM | 1.16 µM
CN1CCN(c2ccc(Nc3nc(Nc4ccccc4F)c4ncn(CC5CC5)c4n3)cc2)CC1 [Compound 4a, 9-(Cyclopropylmethyl)-N^6-(2-fluorophenyl)-N^2-(4-(4-methylpiperazin-1-yl)phenyl)-9H-purine-2,6-diamine] | 14.7 ± 1.48 µM | 149 to 152 °C | 6.47 ± 1.82 µM |  | 17.1 ± 0.4 µM | 15.6 ± 0.88 µM | 1.82 ± 0.35 µM | 21.3 ± 0.63 µM | 4.19 ± 0.83 µM | 14 ± 2.33 µM |  | 
Clc1nc(Cl)c2[nH]cnc2n1 [Compound 1] |  |  |  |  |  |  |  |  |  |  | 14.7 µM | 19.4 µM
CCCCCn1cnc2c(Nc3ccc(F)c(F)c3)nc(Nc3ccc(N4CCN(C)CC4)cc3)nc21 [Compound 5f, N^6-(3,4-Difluorophenyl)-N^2-(4-(4-methylpiperazin-1-yl)phenyl)-9-pentyl-9H-purine-2,6-diamine] | 0.93 ± 0.14 µM |  | 1.61 ± 0.63 µM | 1.02 µM | > 25 µM | > 25 µM | 3.61 ± 1.02 µM | > 25 µM | 1.36 ± 0.5 µM | 20.8 ± 3.18 µM |  | 
CCCCCCn1cnc2c(Nc3ccc(F)c(F)c3)nc(Nc3ccc(N4CCN(C)CC4)cc3)nc21 [Compound 5i, N^6-(3,4-Difluorophenyl)-9-hexyl-N^2-(4-(4-methylpiperazin-1-yl)phenyl)-9H-purine-2,6-diamine] | < 0.58 µM and 0.46 µM |  | 3.86 ± 1.08 µM | 2.74 µM | > 25 µM | > 25 µM | 3.91 ± 0.07 µM | > 25 µM | 34 ± 1.63 µM | 47.3 ± 31.6 µM |  | 
CN1CCN(C(=O)c2ccc(N)cc2)CC1 [Compound 7] |  |  |  |  |  |  |  |  |  |  | 1.36 µM | 1.25 µM
CCOC(=O)c1ccc(Nc2nc(Nc3ccc(N4CCN(C)CC4)cc3)nc3c2ncn3CC2CC2)cc1 [Compound 4k, Ethyl-4-((9-(cyclopropylmethyl)-2-((4-(4-methylpiperazin-1-yl)phenyl)amino)-9H-purin-6-yl)amino)benzoate] | 1.16 ± 0.18 µM |  | 2.43 ± 0.59 µM | 1.16 µM | 13.9 ± 1.12 µM | 12.3 ± 1.58 µM | 1.93 ± 0.17 µM | 2.7 ± 1.31 µM | 0.04 ± 0.01 µM | > 50 µM |  | 
CN1CCN(c2ccc(Nc3nc(Nc4cccc(C#N)c4)c4ncn(CC5CC5)c4n3)cc2)CC1 [Compound 4f, 3-((9-(Cyclopropylmethyl)-2-((4-(4-methylpiperazin-1-yl)phenyl)amino)-9H-purin-6-yl)amino)benzonitrile] | 1.43 ± 0.29 µM |  | 1.05 ± 0.1 µM | 0.93 µM |  | 5.86 ± 3.64 µM | 1.56 ± 0.88 µM | 3.68 ± 0.78 µM | 0.07 ± 0.01 µM | 23.6 ± 1.15 µM |  | 
CCCCCCCCn1cnc2c(Nc3ccc(F)c(F)c3)nc(Nc3ccc(N4CCN(C)CC4)cc3)nc21 [Compound 5l, N^6-(3,4-Difluorophenyl)-N^2-(4-(4-methylpiperazin-1-yl)phenyl)-9-octyl-9H-purine-2,6-diamine] | 0.58 ± 0.33 µM |  | 16.3 ± 4.99 µM | > 20 µM | > 25 µM | 18.9 ± 2.11 µM | 1.51 ± 1.49 µM | 11.8 ± 2.19 µM | 84.5 ± 5.9 µM | 32.2 ± 1.33 µM |  | 
CC(C)CCn1cnc2c(Nc3ccc(F)c(F)c3)nc(Nc3ccc(N4CCN(C)CC4)cc3)nc21 [Compound 5c, N^6-(3,4-Difluorophenyl)-9-isopentyl-N^2-(4-(4-methylpiperazin-1-yl)phenyl)-9H-purine-2,6-diamine] | 1.89 ± 0.17 µM |  | 1.43 ± 0.56 µM | 0.79 µM | 16.8 ± 3.34 µM | 8.87 ± 0.94 µM | 1.59 ± 0.47 µM | 9.4 ± 0.78 µM | 2.28 ± 0.8 µM | 62.5 ± 15 µM |  | 
Clc1nc(Cl)c2ccn(CC3CC3)c2n1 [Compound 10] |  |  |  |  |  |  |  |  |  |  | 0.912 µM | 0.367 µM
O=C(Cl)c1ccc([N+](=O)[O-])cc1 [Compound 6] |  |  |  |  |  |  |  |  |  |  | 4.12 µM | 2.32 µM
Clc1nc(Cl)c2cc[nH]c2n1 [Compound 9] |  |  |  |  |  |  |  |  |  |  | 0.938 µM | 0.534 µM
